The record followed here is patent US11130778B2, “CD73 inhibitors” (ORIC Pharmaceuticals, Inc., priority 2019, dated 2021).

The structures appear in SMILES notation.

This test addresses T1, CD73 (Homo sapiens, UniProt P21589).
T1 sequence (P21589 27-549): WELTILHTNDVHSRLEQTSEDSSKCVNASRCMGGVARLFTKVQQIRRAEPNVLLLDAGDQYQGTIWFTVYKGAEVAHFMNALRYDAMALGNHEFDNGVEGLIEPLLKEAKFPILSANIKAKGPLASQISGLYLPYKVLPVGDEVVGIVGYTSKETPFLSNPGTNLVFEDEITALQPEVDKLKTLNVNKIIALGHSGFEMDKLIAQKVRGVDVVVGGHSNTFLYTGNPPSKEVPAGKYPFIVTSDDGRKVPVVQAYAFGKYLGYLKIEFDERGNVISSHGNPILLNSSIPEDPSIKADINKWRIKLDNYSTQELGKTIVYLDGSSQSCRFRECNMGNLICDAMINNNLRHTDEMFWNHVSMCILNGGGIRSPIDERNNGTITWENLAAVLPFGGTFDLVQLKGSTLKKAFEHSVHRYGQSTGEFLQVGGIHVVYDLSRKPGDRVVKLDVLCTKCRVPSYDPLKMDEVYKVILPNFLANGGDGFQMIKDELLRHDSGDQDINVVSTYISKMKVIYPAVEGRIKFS
As to the kind of experiment: Biochemical assay of CD73 inhibition (Malachite Green). The note with it: CD73 0.3208 nM, AMP 15 μM, Tris-HCl pH 7.4, Malachite Green absorbance readout; read-out: CD73_Biochem. As for the experimental part:
Example A1: Biochemical Assay
Assay Reaction Conditions
• Assay Volume: 70 μl • Reaction Volume: 50 μl • CD73: 0.3208 nM • AMP:15 μM • Assay Buffer: 2 5 mM Tris-HCL, pH 7.4, 0.01% Brij-35, 0.01% BSA, 5 mM MgCl2 Assay Procedure:
Made dose titration of testing compounds in assay buffer, 10 points 1/2 log titrations in duplicates starting at 100 μM.
Added 25 µl of CD73 to each well for a final concentration of […].
Incubated at RT for 15 min.
Added 25 µl of AMP to each well for a final concentration of 15 μM.
Incubated at RT for 10 min.
Added […] of Malachite Green Reagent A, incubate at RT for 10 min.
Added […] of Malachite Green Reagent B, incubate at RT for 45 min.
Read the Absorbance on Envision plate reader using excitation filter: Cy5 […].
The ability of the compounds disclosed herein to inhibit CD73 activity was quantified and the respective IC50 values were determined. Table 2 provides the biochemical IC50 values of compounds disclosed herein.
As to `O=P(O)(O)C(CO)(OC[C@H]1O[C@@H](n2ncc3c(NC4CCCC4)nc(Cl)nc32)[C@H](O)[C@@H]1O)c1nn[nH]n1` (stereo partly drawn) [Example 49, (1-(((2R,3S,4R,5R)-5-(6-chloro-4-(cyclopentylamino)-1H-pyrazolo[3,4-d]pyrimidin-1-yl)-3,4-dihydroxytetrahydrofuran-2-yl)methoxy)-2-hydroxy-1-(2H-tetrazol-5-yl)ethyl)phosphonic acid], the IC50 is 10 to 100 nM.

In the case of `COC[C@@](COCc1nn[nH]n1)(OC[C@H]1O[C@@H](n2ncc3c(NC4CCCC4)nc(Cl)nc32)[C@H](O)[C@@H]1O)P(=O)(O)O` [Example 39, ((R)-1-((2H-tetrazol-5-yl)methoxy)-2-(((2R,3S,4R,5R)-5-(6-chloro-4-(cyclopentylamino)-1H-pyrazolo[3,4-d]pyrimidin-1-yl)-3,4-dihydroxytetrahydrofuran-2-yl)methoxy)-3-methoxypropan-2-yl)phosphonic acid], the IC50 was at most 10 nM.

As for `COCC(COCc1nn[nH]n1)(OC[C@H]1O[C@@H](n2ncc3c(NC4CCCC4)nc(C#CC4CC4)nc32)[C@H](O)[C@@H]1O)P(=O)(O)O` (stereo partly drawn) [Example 53, (1-((2H-tetrazol-5-yl)methoxy)-2-(((2R,3S,4R,5R)-5-(4-(cyclopentylamino)-6-(cyclopropylethynyl)-1H-pyrazolo[3,4-d]pyrimidin-1-yl)-3,4-dihydroxytetrahydrofuran-2-yl)methoxy)-3-methoxypropan-2-yl)phosphonic acid], the IC50 was at most 10 nM.

Consider `O=P(O)(O)C(COCc1nnn[nH]1)(Cc1nnn[nH]1)OC[C@H]1O[C@@H](n2ncc3c(NC4CCCC4)nc(Cl)nc32)[C@H](O)[C@@H]1O` (stereo in doubt) [Example 42, ((R)-1-((1H-tetrazol-5-yl)methoxy)-2-(((2R,3S,4R,5R)-5-(6-chloro-4-(cyclopentylamino)-1H-pyrazolo[3,4-d]pyrimidin-1-yl)-3,4-dihydroxytetrahydrofuran-2-yl)methoxy)-3-(1H-tetrazol-5-yl)propan-2-yl)phosphonic acid], for which the IC50 is at most 10 nM.

Turning to `O=P(O)(O)[C@@](CO)(Cc1nn[nH]n1)OC[C@H]1O[C@@H](n2ncc3c(NC4CCCC4)nc(C#CC4CC4)nc32)[C@H](O)[C@@H]1O` [Example 50, ((R)-2-(((2R,3S,4R,5R)-5-(4-(cyclopentylamino)-6-(cyclopropylethynyl)-1H-pyrazolo[3,4-d]pyrimidin-1-yl)-3,4-dihydroxytetrahydrofuran-2-yl)methoxy)-1-hydroxy-3-(2H-tetrazol-5-yl)propan-2-yl)phosphonic acid], the IC50 is at most 10 nM.

With `O=P(O)(O)C(CO)(COCc1nn[nH]n1)OC[C@H]1O[C@@H](n2ncc3c(N[C@@H]4CCc5ccccc54)nc(Cl)nc32)[C@H](O)[C@@H]1O` (stereo partly drawn) [Example 60, (1-((2H-tetrazol-5-yl)methoxy)-2-(((2R,3S,4R,5R)-5-(6-chloro-4-(((R)-2,3-dihydro-1H-inden-1-yl)amino)-1H-pyrazolo[3,4-d]pyrimidin-1-yl)-3,4-dihydroxytetrahydrofuran-2-yl)methoxy)-3-hydroxypropan-2-yl)phosphonic acid], the IC50 is at most 10 nM.

As to `O=P(O)(O)[C@@](CO)(Cc1nn[nH]n1)OC[C@H]1O[C@@H](n2ncc3c(NCC4CCC4)nc(Cl)nc32)[C@H](O)[C@@H]1O` [Example 20, ((R)-2-(((2R,3S,4R,5R)-5-(6-chloro-4-((cyclobutylmethyl)amino)-1H-pyrazolo[3,4-d]pyrimidin-1-yl)-3,4-dihydroxytetrahydrofuran-2-yl)methoxy)-1-hydroxy-3-(2H-tetrazol-5-yl)propan-2-yl)phosphonic acid], the IC50 lay within 10 to 100 nM.

As for `COC[C@](COCc1nn[nH]n1)(OC[C@H]1O[C@@H](n2ncc3c(NC4CCCC4)nc(Cl)nc32)[C@H](O)[C@@H]1O)P(=O)(O)O` [Example 38, ((S)-1-((2H-tetrazol-5-yl)methoxy)-2-(((2R,3S,4R,5R)-5-(6-chloro-4-(cyclopentamino)-1H-pyrazolo[3,4-d]pyrimidin-1-yl)-3,4-dihydroxytetrahydrofuran-2-yl)methoxy)-3-methoxypropan-2-yl)phosphonic acid], the IC50 is at most 10 nM.

With `O=P(O)(O)[C@@](CO)(COCc1nn[nH]n1)OC[C@H]1O[C@@H](n2ncc3c(NC4CCCC4)nc(Cl)nc32)[C@H](O)[C@@H]1O` [Example 25, ((S)-1-((2H-tetrazol-5-yl)methoxy)-2-(((2R,3S,4R,5R)-5-(6-chloro-4-(cyclopentylamino)-1H-pyrazolo[3,4-d]pyrimidin-1-yl)-3,4-dihydroxytetrahydrofuran-2-yl)methoxy)-3-hydroxypropan-2-yl)phosphonic acid], the IC50 is at most 10 nM.

`O=P(O)(O)C(COCc1nnn[nH]1)(COCC1CC1)OC[C@H]1O[C@@H](n2ncc3c(NC4CCCC4)nc(Cl)nc32)[C@H](O)[C@@H]1O` (stereo in doubt) [Example 44, ((R)-1-((1H-tetrazol-5-yl)methoxy)-2-(((2R,3S,4R,5R)-5-(6-chloro-4-(cyclopentylamino)-1H-pyrazolo[3,4-d]pyrimidin-1-yl)-3,4-dihydroxytetrahydrofuran-2-yl)methoxy)-3-(cyclopropylmethoxy)propan-2-yl)phosphonic acid]: the IC50 was at most 10 nM.

On to `O=P(O)(O)C(CO)(CCc1nnn[nH]1)OC[C@H]1O[C@@H](n2ncc3c(NC4CCCC4)nc(Cl)nc32)[C@H](O)[C@@H]1O` (stereo partly drawn) [Example 18, (2-(((2R,3S,4R,5R)-5-(6-chloro-4-(cyclopentylamino)-1H-pyrazolo[3,4-d]pyrirnidin-1-yl)-3,4-dihydroxytetrahydrofuran-2-yl)methoxy)-1-hydroxy-4-(1H-tetrazol-5-yl)butan-2-yl)phosphonic acid], for which the IC50 was at most 10 nM.

Regarding `O=P(O)(O)C(COCc1nnn[nH]1)(COCC1CC1)OC[C@H]1O[C@@H](n2ncc3c(NC4CCCC4)nc(Cl)nc32)[C@H](O)[C@@H]1O` (stereo in doubt) [Example 45, ((S)-1-((1H-tetrazol-5-yl)methoxy)-2-(((2R,3S,4R,5R)-5-(6-chloro-4-(cyclopentylamino)-1H-pyrazolo[3,4-d]pyrimidin-1-yl)-3,4-dihydroxytetrahydrofuran-2-yl)methoxy)-3-(cyclopropylmethoxy)propan-2-yl)phosphonic acid], the IC50 is at most 10 nM.

Take `COC[C@](Cc1nn[nH]n1)(OC[C@H]1O[C@@H](n2ncc3c(NCC(C)C)nc(Cl)nc32)[C@H](O)[C@@H]1O)P(=O)(O)O` [Example 35, ((R)-2-(((2R,3S,4R,5R)-5-(6-chloro-4-(isobutylamino)-1H-pyrazolo[3,4-d]pyrimidin-1-yl)-3,4-dihydroxytetrahydrofuran-2-yl)methoxy)-1-methoxy-3-(2H-tetrazol-5-yl)propan-2-yl)phosphonic acid]: the IC50 is at most 10 nM.

Regarding `O=c1[nH]c(COCC(CO)(OC[C@H]2O[C@@H](n3ncc4c(NC5CCCC5)nc(Cl)nc43)[C@H](O)[C@@H]2O)P(=O)(O)O)no1` (stereo partly drawn) [Example 51, (2-(((2R,3S,4R,5R)-5-(6-chloro-4-(cyclopentylamino)-1H-pyrazolo[3,4-d]pyrimidin-1-yl)-3,4-dihydroxytetrahydrofuran-2-yl)methoxy)-1-hydroxy-3-((5-oxo-4,5-dihydro-1,2,4-oxadiazol-3-yl)methoxy)propan-2-yl)phosphonic acid], the IC50 was at most 10 nM.

On to `O=P(O)(O)C(CO)(Cc1nn[nH]n1)OC[C@H]1O[C@@H](n2ncc3c(NC4CCC4)nc(CO)nc32)[C@H](O)[C@@H]1O` (stereo partly drawn) [Example 17, (2-(((2R,3S,4R,5R)-5-(4-(cyclobutylamino)-6-(hydroxymethyl)-1H-pyrazolo[3,4-d]pyrimidin-1-yl)-3,4-dihydroxytetrahydrofuran-2-yl)methoxy)-1-hydroxy-3-(2H-tetrazol-5-yl)propan-2-yl)phosphonic acid], for which the IC50 is at most 10 nM.

Regarding `COCC(CCC(=O)O)(OC[C@H]1O[C@@H](n2ncc3c(NC4CCCC4)nc(Cl)nc32)[C@H](O)[C@@H]1O)P(=O)(O)O` (stereo partly drawn) [Example 6, 4-(((2R,3S,4R,5R)-5-(6-chloro-4-(cyclopentylamino)-1H-pyrazolo[3,4-d]pyrimidin-1-yl)-3,4-dihydroxytetrahydrofuran-2-yl)methoxy)-5-methoxy-4-phosphonopentanoic acid], the IC50 was at most 10 nM.

With `O=c1[nH]c(C[C@](CO)(OC[C@H]2O[C@@H](n3ncc4c(NC5CCCC5)nc(Cl)nc43)[C@H](O)[C@@H]2O)P(=O)(O)O)no1` [Example 27, ((S)-2-(((2R,3S,4R,5R)-5-(6-chloro-4-(cyclopentylamino)-1H-pyrazolo[3,4-d]pyrimidin-1-yl)-3,4-dihydroxytetrahydrofuran-2-yl)methoxy)-1-hydroxy-3-(5-oxo-4,5-dihydro-1,2,4-oxadiazol-3-yl)propan-2-yl)phosphonic acid], the IC50 is at most 10 nM.
